Experimental data from PubChem BioAssay AID652148 (Molecular Libraries Program, Specialized Chemistry Center, …, 2013).
Activity calls are given as the source filed them. How the calls were made is not given here.

These molecules were tested against Rho GTPase-activating protein 1 (Homo sapiens) (UniProt Q07960) (assay: ARHGAP1 GAP activity inhibitors on Rac1 – biochemical, Biomol green phosphate read-out, selectivity assay for MgcRacGAP inhibitor project, dose response (AID 652148)). Conditions: p50RhoGAP-stimulated Rac1 GTP hydrolysis.
Chain of Rho GTPase-activating protein 1 (Homo sapiens) (Q07960 whole entry, looked up): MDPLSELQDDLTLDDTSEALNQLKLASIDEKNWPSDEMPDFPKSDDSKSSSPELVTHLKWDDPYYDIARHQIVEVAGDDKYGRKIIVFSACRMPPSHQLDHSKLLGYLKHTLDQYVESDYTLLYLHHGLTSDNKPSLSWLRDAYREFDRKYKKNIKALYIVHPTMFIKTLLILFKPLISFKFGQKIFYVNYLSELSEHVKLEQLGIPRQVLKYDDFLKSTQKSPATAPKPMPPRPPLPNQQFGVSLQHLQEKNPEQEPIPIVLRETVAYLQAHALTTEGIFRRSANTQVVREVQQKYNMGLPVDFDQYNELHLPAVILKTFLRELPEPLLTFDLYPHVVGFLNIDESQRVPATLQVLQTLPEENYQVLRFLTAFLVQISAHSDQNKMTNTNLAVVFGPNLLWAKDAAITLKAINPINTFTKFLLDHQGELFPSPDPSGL
Work on `O=C1C=CC(=O)c2c(O)c(N3CCN(CCOCCO)CC3)c(Br)c(O)c21` yielded an IC50 of 32.6 µM.
`O=c1c2ccccc2sn1-c1ccc(Cl)cc1` gave an IC50 of 12.3 µM.
`O=c1c2ccccc2sn1-c1ccc(F)cc1` showed an IC50 of 35.4 µM.
`CC1OC(CC(=O)O)CC2=C1C(=O)c1c(O)cccc1C2=O` (stereo unspecified) was tested, and the IC50 was 8.81 µM.
For `CSc1nc(N)c(N=Nc2ccc([As](=O)(O)O)cc2)c(=O)[nH]1`, the IC50 was 3.09 µM.
For `CCN(CC)c1ccc(C(=C2C=CC(=[N+](CC)CC)C=C2)c2ccc(N(CC)CC)cc2)cc1`, the IC50 was 22.1 µM.
`O=C1C=CC(=O)N1c1ccccc1N1C(=O)C=CC1=O` showed an IC50 of 15.7 µM.
For `O=C1C(=Cc2ccco2)CCC1=Cc1ccco1`, the IC50 was 26.8 µM.
`CN(C)c1nc(=NCc2cccs2)ss1` was tested, and the IC50 was 14.7 µM.
`CCN1CCN(Cc2ccc(NC(=O)c3ccc(C)c(/C=C/c4cnc(Nc5cc(N6CCNCC6)nc(C)n5)cn4)c3)cc2C(F)(F)F)CC1` showed an IC50 of 54.1 µM.
`O=c1c2cc(F)ccc2sn1-c1ccccc1` showed an IC50 of 2.06 µM.
`O=C(O)c1cc(N2N=C(C(F)(F)F)/C(=C/C=C/c3ccco3)C2=O)ccc1Cl` was tested, and the IC50 was 4.68 µM.
In the case of `CN(C)c1ccc(C=c2c3cc(O)ccc3n3c2cc(-c2ccccc2)[n+]3C)cc1`, the IC50 is reported as 36.2 µM.
`COc1ccc(-n2sc3ccc(F)cc3c2=O)cc1` was tested, and the IC50 was 15 µM.
Molecule `CC(=O)Nc1ccc2sn(-c3ccccc3)c(=O)c2c1` has an IC50 of 22.3 µM.
With `O=C(O)C1CSC(c2ccco2)N1` (stereo unspecified) the IC50 was 16.1 µM.
`O=C1C(Cl)=C(NC(=O)c2ccccc2)C(=O)C(Cl)=C1NC(=O)c1ccccc1` showed an IC50 of 46 µM.
`Cn1ccc(=Nc2ccc(NC(=O)c3ccc(N=c4ccn(C)c5ccc([N+](=O)[O-])cc45)cc3)cc2)cc1` showed an IC50 of 22.2 µM.
`Cc1cc(C)c2c(=N)c3ccccc3n(CCCCCCCCn3c4ccccc4c(=N)c4c(C)cc(C)nc43)c2n1` showed an IC50 of 22.2 µM.
In the case of `O=C1NC(=S)N(c2ccccc2)C(=O)/C1=C/c1ccco1`, the IC50 is reported as 3.99 µM.
Work on `O=C(Nc1ccccc1Cl)/C(Cl)=C(\Cl)S(=O)c1ccccc1` (stereo unspecified) yielded an IC50 of 20.7 µM.
Work on `O=C(O)c1cccc(-n2sc3ccccc3c2=O)c1` yielded an IC50 of 10.3 µM.
`O=c1c2cc(F)ccc2sn1-c1ccccc1Cl` was tested, and the IC50 was 24.5 µM.
With `CN(C)c1ncc(C2=C(Cl)C(=O)C(N3CCCC3)=C(Cl)C2=O)s1` the IC50 was 10.7 µM.
For `O=c1c2ccccc2sn1-c1cccc(Cl)c1`, the IC50 was 11.2 µM.
In the case of `O=C1C=CC(=O)c2c(O)c(N3CCN(CCO)CC3)c(Cl)c(O)c21`, the IC50 is reported as 36.5 µM.

Same assay, conditions: p50RhoGAP-stimulated Rac1 GTP hydrolysis, at 100 µM (top of the series)
In the case of `O=C(O)c1cc(N2C(=O)C=CC2=O)cc(N2C(=O)C=CC2=O)c1`, the inhibition is reported as “inactive”.
In the case of `O=c1c2ccccc2sn1-c1ccc(Cl)cc1Cl`, the inhibition is reported as “inactive”.
In the case of `O=c1c2ccccc2sn1-c1ccccc1F`, the inhibition is reported as “inactive”.
In the case of `COc1ccc(NC2CCCN(C(=O)C3(C)CCCCC3)C2)cc1` (stereo unspecified), the inhibition is reported as “inactive”.
For `COC(=O)c1cccc(-n2sc3ccccc3c2=O)c1`, the inhibition was “inactive”.
With `Nc1ccc(OCc2ccco2)cc1` the inhibition was “inactive”.
With `Cc1ccc(C)c(-n2sc3ccc(F)cc3c2=O)c1` the inhibition was “inactive”.
For `Cc1ccc(-n2sc3cc(F)ccc3c2=O)c(C)c1`, the inhibition was “inactive”.
In the case of `COc1ccc(Nc2ccc3ccccc3c2)cc1`, the inhibition is reported as “inactive”.
With `CN(C)c1ccc(/C=C/c2cc[n+](C)c3ccccc23)cc1` the inhibition was “inactive”.
With `Cc1c(Cl)sn(-c2ccc(Cl)cc2)c1=O` the inhibition was “inactive”.
In the case of `O=C1C(SCCO)=C(SCCO)C(=O)c2ccccc21`, the inhibition is reported as “inactive”.
In the case of `Cc1cc(N)c2cc(NC(=O)/C=C/c3ccccc3Cl)ccc2n1`, the inhibition is reported as “inactive”.
With `CC1=NNC(=O)C1Br` (stereo unspecified) the inhibition was “inactive”.
In the case of `O=c1c2ccc(F)cc2sn1-c1ccccc1`, the inhibition is reported as “inactive”.
In the case of `O=c1c2sc3ccccc3c2[nH]c(=S)n1CCN1CCOCC1`, the inhibition is reported as “inactive”.
With `Nc1n[nH]c(=S)n1/N=C1/C(=O)Nc2ccccc21` the inhibition was “inactive”.
With `COc1ccc(-n2sc3ccccc3c2=O)cc1` the inhibition was “inactive”.
In the case of `COc1ccc(/C=N/Nc2cc(C)nc3ccc(OC)cc23)c(OC)c1`, the inhibition is reported as “inactive”.
For `C[n+]1c(-c2ccc(C=NNC(=O)c3ccc(C(=O)NN=Cc4ccc(-c5cn6ccccc6[n+]5C)cc4)cc3)cc2)cn2ccccc21`, the inhibition was “inactive”.
